Reference: US5278171A, “Azadecalin amides and thioamides as inhibitors of cholesterol biosynthesis” (Merrell Dow Pharmaceuticals Inc., priority 1991, dated 1994)

Experiments:
[1] = system: Oxidosqualene Cyclase in HepG2 Cells; assay: Inhibition of Oxidosqualene Cyclase in HepG2 Cells (IC50 for the inhibition of [14C]cholesterol biosynthesis); type: cell-based; conditions: Homo sapiens, read-out: IC50 HepG2 Cell
Experimental: 1. Inhibition of Oxidosqualene Cyclase in HepG2 Cells (IC50)
HepG2 cells, obtained from American Type Culture Collection, are seeded into plastic 6-well multiwell dishes and grown to 60-70% confluency in an atmosphere of 5%CO2 at 37° C. using Minimal Essential Media supplemented with 10% fetal bovine serum as culture media. The cells are washed and the media is replaced with one containing 10% lipoprotein-deficient serum instead of 10% fetal bovine serum. Twenty-four hours later the test compound is added to the culture media in ethanol to obtain concentrations of between 0 and 100 μM. One hour after the addition of the test compound, 2.0 μC of [^14 C]acetate is added to each well and the cells are allowed to incubate for an additional 2-3 hours. The cells are then harvested and extracted for analysis of ^14 C-labeled cholesterol, squalene monoepoxide and squalene diepoxide. These metabolites are separated and identified by a combination of high performance liquid chromatography and flow-through liquid scintillation spectroscopy. An IC50 for the inhibition of [^14 C]cholesterol biosynthesis is calculated based on the radioactivity in controls and treated cells.

Oxidosqualene cyclase = assay: Inhibition of Purified Oxidosqualene Cyclase (I10); type: biochemical; conditions: purified oxidosqualene cyclase from rat liver microsomes, 10 μM [3H]squalene monoepoxide, pH 7.4, 37° C., 40 minutes
Experimental: Oxidosqualene cyclase is purified from rat liver microsomes by the sequential methods of: 1) solubilization with the detergent lauryl maltoside and 2) FPLC anion-exchange chromatography. Compounds are tested to determine their ability to inhibit the conversion of squalene monoepoxide to lanosterol catalyzed by the purified oxidosqualene cyclase. The reaction mixture (final volume, 200 μl) contains potassium phosphate buffer (50 mM, pH 7.4), Na2 EDTA (500 μM), Tween 80 (0.1%), [^3 H]squalene monoepoxide (10 μM of the racemic mixture, 50 μCi/μmol), test compound (10 μM) and purified oxidosqualene cyclase (50μg). The reagents, prior to mixing are equilibrated at 37° C. for 10 minutes. The reaction is initiated by adding enzyme. The mixture is incubated for 40 minutes with shaking in a water bath. The reaction is terminated by the addition of 5 ml of CHCl3 /MeOH (2:1, v/v), 0.8 ml of water and 10 μg each of squalene monoepoxide, squalene diepoxide, lanosterol and cholesterol. The organic layer is isolated and evaporated to dryness under nitrogen. […] Radioactivity is quantitated using an in-line scintillation counter.

Row | IC50 [1] [µM] | I10 purified enzyme (percent inhibition of oxidosqualene cyclase activity at 10 μM test compound) (Oxidosqualene cyclase) [%] | SMILES
1 | 52 | 100 | CC(C)CCSCCCCC(=O)N1CC[C@H]2[C@H](C)[C@@H](O)CC[C@]2(C)C1 (relative stereo) [Example 100905, N-[1-Oxo-5-(3-methylbutylmercapto)pentyl]-8-aza-4α,10-dimethyl-trans-decal-3β-ol]
2 | 0.7 | – | CCCCCCCCCCCC(=O)N1CC[C@H]2[C@H](C)[C@@H](O)CC[C@]2(C)C1 (relative stereo) [Example 102417, N-(1-Oxododecyl)-8-aza-4α,10-dimethyl-trans-decal-3β-ol]
